The text below walks through data of ChEMBL document CHEMBL5223091, “Targeting the Mitotic Kinesin KIF18A in Chromosomally Unstable Cancers: Hit Optimization Toward an In Vivo Chemical Probe” (J Med Chem, 2022).

One data set has as its target Tubulin. Briefly: Binding affinity to microtubule (unknown origin) by NMR based assay. In kind it is protein-complex assay, Homo sapiens.
The target in data set [1] is T1, Kinesin-like protein KIF18A (Homo sapiens, UniProt Q8NI77).
T1 sequence (Q8NI77 whole entry): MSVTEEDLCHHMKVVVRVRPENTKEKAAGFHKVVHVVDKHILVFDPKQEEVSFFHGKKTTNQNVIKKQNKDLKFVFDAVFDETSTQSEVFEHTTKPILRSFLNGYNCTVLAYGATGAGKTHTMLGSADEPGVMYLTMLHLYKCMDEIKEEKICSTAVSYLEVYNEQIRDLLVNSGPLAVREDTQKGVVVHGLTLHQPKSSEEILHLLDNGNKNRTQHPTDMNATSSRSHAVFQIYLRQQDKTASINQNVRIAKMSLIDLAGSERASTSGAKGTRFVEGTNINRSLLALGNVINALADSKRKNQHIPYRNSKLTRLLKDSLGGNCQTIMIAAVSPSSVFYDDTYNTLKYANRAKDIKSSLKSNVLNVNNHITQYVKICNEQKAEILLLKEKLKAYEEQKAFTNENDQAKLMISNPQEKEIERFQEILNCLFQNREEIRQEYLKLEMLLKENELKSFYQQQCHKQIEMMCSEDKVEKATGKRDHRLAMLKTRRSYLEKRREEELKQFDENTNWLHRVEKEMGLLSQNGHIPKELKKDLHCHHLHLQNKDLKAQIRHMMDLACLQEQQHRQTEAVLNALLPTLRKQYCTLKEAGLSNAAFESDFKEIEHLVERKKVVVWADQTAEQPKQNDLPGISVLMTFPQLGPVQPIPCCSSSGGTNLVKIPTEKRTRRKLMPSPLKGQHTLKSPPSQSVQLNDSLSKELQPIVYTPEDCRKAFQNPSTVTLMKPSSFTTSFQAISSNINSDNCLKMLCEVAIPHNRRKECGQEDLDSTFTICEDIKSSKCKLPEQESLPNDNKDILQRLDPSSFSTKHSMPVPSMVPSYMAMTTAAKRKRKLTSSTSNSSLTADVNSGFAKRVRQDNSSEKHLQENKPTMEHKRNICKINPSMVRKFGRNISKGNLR
In words: Inhibition of KIF18A ATPase activity (unknown origin).

Data set [2] has as its target T1, Kinesin-like protein KIF18A. Briefly: Binding affinity to KIF18A (unknown origin) by NMR based assay.
The nature of data set [3]: Binding affinity to KIF18A- MT complex (unknown origin) by NMR based assay. The arrangement: species or system Homo sapiens.
Data set [4] concerns the target T1, Kinesin-like protein KIF18A. In words: Inhibition of recombinant His-tagged human KIF18A (1 to 467 residues) expressed in Trichoplusia ni insect cells assessed as inhibition of microtubule-stimulated ATPase activity preincubated for 30 mins followed by ATP addition and further incubated for 15 mins by ADP-Glo reagent based assay. The arrangement: species or system Insect cell.

Data set [5] is described as follows: Plasma concentration in CD-1 mouse xenografted with human OVCAR-3 cells at 100 mg/kg, ip measured upto 24 hrs by LC-MS/MS analysis. In kind it is ADME, organism-based. A general note: A xenograft is tissue or cells of one species grown in another, often human tumour cells in immunodeficient mice.
Data set [6] relates to OVCAR-3. In words: Antiproliferative activity against human OVCAR-3 cells by nuclear count assay. In kind it is functional, cell-based.
Data set [7] deals with OVCAR-3. In words: Induction of mitotic arrest in human OVCAR-3 cells assessed as p-histone H3 incubated for 24 hrs by mitotic - imaging assay. In kind it is functional, cell-based. Conditions: OVCAR-3, 24 h.
Data set [8] in a line: Metabolic stability in mouse liver microsomes assessed as intrinsic clearance at 0.5 uM incubated upto 40 mins by LCMS analysis. The class given is ADME, Microsome. Conditions: read-out: CLH. Background: Liver microsomes are vesicles of endoplasmic reticulum, rich in cytochrome P450 enzymes.
The nature of data set [9]: Cmax in CD-1 mouse xenografted with human OVCAR-3 cells at 100 mg/kg, ip by LC-MS/MS analysis. In kind it is ADME, organism-based. The arrangement: dose 100 mg/kg, route ip. Conditions: in vivo.
The nature of data set [10]: AUC (0 to 24 hrs) in CD-1 mouse xenografted with human OVCAR-3 cells at 100 mg/kg, ip by LC-MS/MS analysis. Conditions: in vivo. In kind it is ADME, organism-based. The arrangement: dose 100 mg/kg, route ip.
A short description of data set [11]: Unbound fraction in CD-1 mouse plasma xenografted with human OVCAR-3 cells at 100 mg/kg, ip by LC-MS/MS analysis. The class given is ADME, organism-based.
The nature of data set [12]: Metabolic stability in human liver microsomes assessed as intrinsic clearance at 0.5 uM incubated upto 40 mins by LCMS analysis. Conditions: read-out: CLH. In kind it is ADME, Microsome.
In data set [13] the test system is OVCAR-3. Briefly: Antimitotic activity in human OVCAR-3 cells xenografted in CD-1 mouse assessed as fold increase in mitotic cells in tumor at 100 mg/kg, po measured after 24 hrs relative to control. The class given is functional.
Data set [14] is described as follows: Unbound fraction in plasma (unknown origin) by ultracentrifugation. The class given is ADME, cell-free.
The nature of data set [15]: Half life in CD-1 mouse at 1 mg/kg, iv and 10 mg/kg, po. In kind it is ADME, organism-based. Conditions: in vivo.
Data set [16] in a line: Oral bioavailability in CD-1 mouse at 10 mg/kg. The class given is ADME, organism-based. Conditions: in vivo.
The nature of data set [17]: Clearance in CD-1 mouse at 1 mg/kg, iv and 10 mg/kg, po. The conditions noted are these: in vivo. In kind it is ADME, organism-based.
Data set [18] is described as follows: Cmax in CD-1 mouse at 1 mg/kg, iv and 10 mg/kg, po. In kind it is ADME, organism-based. The arrangement: dose 10 mg/kg, route po. The conditions noted are these: in vivo.
A short description of data set [19]: Volume of distribution at steady state in CD-1 mouse at 1 mg/kg, iv and 10 mg/kg, po. The class given is ADME, organism-based. The conditions noted are these: in vivo.
A short description of data set [20]: Drug metabolism in mouse liver microsomes assessed as mono-hyoxylate metabolite formation in presence of NADPH by LC-MS/MS analysis. The class given is ADME, Microsome.
A short description of data set [21]: Drug metabolism in mouse liver microsomes assessed as di-hydroxylate metabolite formation in presence of NADPH by LC-MS/MS analysis. In kind it is ADME, Microsome.

Molecules are shown by their SMILES. Bounds are passed on as bounds.

What is called Kd is the free concentration of one partner at which half of the binding sites on the other are occupied at equilibrium, for simple one-to-one binding. A higher Kd goes with weaker binding. One may read the IC50 as the concentration that inhibits the measured activity by half. Regarding `C[C@H](NS(=O)(=O)c1cccc(NC(=O)c2ccc(NC(CO)CO)nc2N2CCC3(CC2)CC3)c1)C(F)(F)F`, the Kd at Tubulin is 25000 nM; in data set [2] it was over 50000 nM; in data set [3] it was 150 nM. In addition, the IC50 in data set [1] stood at 32000 nM; in data set [4] it was 90 nM.

A word on the EC50: it is the concentration needed to bring the measured effect to its halfway point. As a reminder, the Cmax is the peak of the concentration-time curve. In general, AUC(0-t) refers to exposure summed from dosing to a finite time, without extrapolation to infinity. Low values mean low exposure, high ones high exposure. The fraction unbound is the share of the substance not bound to proteins or other matrix. Low values mean extensive binding, high ones weak binding. In data set [5], `CC(C)(C)NS(=O)(=O)c1cccc(NC(=O)c2ccc(NS(C)(=O)=O)cc2N2CCC3(CC2)CC3)c1` gave a concentration at 24 h of 2900 nM. The EC50 in the data set on OVCAR-3 [6] and in the data set on OVCAR-3 [7] was 16 nM in each case. Moreover, the microsomal CLint at 0.5 µM in [8] was 81 µL/min/mg; in data set [12], 79 µL/min/mg. For the same molecule, the highest level in data set [9] (Cmax) was 12600 nM. In data set [10], this molecule gave an AUC(0-t) of 147 µM·h. The molecule further displayed a fraction unbound in data set [11] of 0.007. For the same molecule, the IC50 in [4] amounted to 28 nM.

For the molecule `CC[C@@H]1C(=O)N(C)c2cnc(Nc3ccc(C(=O)NC4CCN(C)CC4)cc3OC)nc2N1C1CCCC1` [BI-2536], the “fold change (FC)” value in the data set on OVCAR-3 [13] is listed as over 3.

By half-life is commonly meant the time in which the quantity being followed falls by half. A low value points to fast loss. What is called bioavailability is the share of a dose that reaches the circulation, judged against a reference dose that is usually intravenous. Read a low bioavailability as little systemic uptake. Molecule `CC(C)(C)NS(=O)(=O)c1cccc(NC(=O)c2ncc(NC(C)(C)CO)nc2N2CCC3(CC2)CC3)c1` yielded a fraction unbound in data set [14] of 0.019. Besides, the EC50 was determined as 110 nM in the data set with OVCAR-3 [6] and 190 nM in the data set on OVCAR-3 [7]. For the same molecule, the half-life in data set [15] was 3.6 h. This molecule also registered a bioavailability in data set [16] of 13%. Moreover, the microsomal CLint at 0.5 µM in [8] stood at 76 µL/min/mg; in data set [12], 74 µL/min/mg. In data set [17], this molecule gave a CL of 5 mL/min/kg. In data set [18], this molecule showed a Cmax of 2430 nM. In data set [19], this molecule displayed a Vdss of 0.7 L/kg. Also, the IC50 in data set [4] was found to be 135 nM.

The molecule `CC(C)(C)NS(=O)(=O)c1cccc(NC(=O)c2ccc(NS(=O)(=O)C3(C)CC3)cc2N2CCC3(CC2)CC3)c1` gave a concentration at 24 h in data set [5] of 800 nM. The EC50 in the data set on OVCAR-3 [6] and in the data set with OVCAR-3 [7] was 11 nM each time. The microsomal CLint at 0.5 µM in data set [8] and in [12] was 90 µL/min/mg throughout. The molecule also showed a Cmax in data set [9] of 26500 nM. In data set [10], this molecule yielded an AUC(0-t) of 269 µM·h. This molecule registered a fraction unbound in data set [11] of 0.015.

As to `O=C(Nc1cccc(S(=O)(=O)C2CCCC2)c1)c1cccnc1N1CCC2(CC1)CC2`, the Drug metabolism result in data set [20] and in data set [21] was “Metabolite_Detected” each time. In addition, the EC50 in the data set with OVCAR-3 [6] was found to be 1240 nM; in the data set on OVCAR-3 [7] it was 1870 nM. For the same molecule, the microsomal CLint at 0.5 µM in [8] and in [12] was over 399 µL/min/mg each time. Further, the IC50 in data set [4] was 410 nM.
